Test results taken from the kinase profiling compilation of Christmann-Franck et al. (2016).

Assays:
Experiment in all cases: radiometric filter-binding kinase assay
[1] = biological target: AURKB (human) (UniProt Q96GD4)
[2] = biological target: BRSK1 (human) (UniProt Q8TDC3); settings: compound 0.1 µM
[3] = biological target: BTK (human) (UniProt Q06187)
[4] = biological target: CAMKK2 (human) (UniProt Q96RR4)
[5] = biological target: CSK (human) (UniProt P41240)
[6] = biological target: CSNK1D (human) (UniProt P48730)
[7] = biological target: CaMK1 (human) (UniProt Q14012)
[8] = biological target: DYRK1A (human) (UniProt Q13627)
[9] = biological target: DYRK2 (human) (UniProt Q92630)
[10] = biological target: EPHA4 (human) (UniProt P54764); settings: compound 0.1 µM
[11] = biological target: EPHB2 (human) (UniProt P29323); settings: compound 0.1 µM
[12] = biological target: EPHB3 (human) (UniProt P54753)
[13] = biological target: HIPK2 (human) (UniProt Q9H2X6)
[14] = biological target: IGF1R (human) (UniProt P08069)
[15] = biological target: IKBKB (human) (UniProt O14920)
[16] = biological target: IKBKE (human) (UniProt Q14164)
[17] = biological target: MAP2K2 (human) (UniProt P36507); settings: compound 0.1 µM
[18] = biological target: MAP3K11 (human) (UniProt Q16584)
[19] = biological target: MAP3K7 TAB1 (human) (UniProt Q15750+O43318); settings: compound 0.1 µM
[20] = biological target: MAPK12 (human) (UniProt P53778)
[21] = biological target: MAPK14 (human) (UniProt Q16539)
[22] = biological target: MAPK15 (human) (UniProt Q8TD08)
[23] = biological target: MAPK8 (human) (UniProt P45983)
[24] = biological target: MAPK9 (human) (UniProt P45984)
[25] = biological target: MAPKAPK2 (human) (UniProt P49137)
[26] = biological target: MAPKAPK5 (human) (UniProt Q8IW41)
[27] = biological target: MELK (human) (UniProt Q14680)
[28] = biological target: MINK1 (human) (UniProt Q8N4C8)
[29] = biological target: MKNK2 (human) (UniProt Q9HBH9)
[30] = biological target: PAK4 (human) (UniProt O96013)
[31] = biological target: PAK7 (human) (UniProt Q9P286)
[32] = biological target: PIM1 (human) (UniProt P11309)
[33] = biological target: PRKACA (human) (UniProt P17612)
[34] = biological target: RIPK2 (human) (UniProt O43353); settings: compound 0.1 µM
[35] = biological target: YES1 (human) (UniProt P07947)
YES1 (human), sequence (P07947 whole entry, looked up): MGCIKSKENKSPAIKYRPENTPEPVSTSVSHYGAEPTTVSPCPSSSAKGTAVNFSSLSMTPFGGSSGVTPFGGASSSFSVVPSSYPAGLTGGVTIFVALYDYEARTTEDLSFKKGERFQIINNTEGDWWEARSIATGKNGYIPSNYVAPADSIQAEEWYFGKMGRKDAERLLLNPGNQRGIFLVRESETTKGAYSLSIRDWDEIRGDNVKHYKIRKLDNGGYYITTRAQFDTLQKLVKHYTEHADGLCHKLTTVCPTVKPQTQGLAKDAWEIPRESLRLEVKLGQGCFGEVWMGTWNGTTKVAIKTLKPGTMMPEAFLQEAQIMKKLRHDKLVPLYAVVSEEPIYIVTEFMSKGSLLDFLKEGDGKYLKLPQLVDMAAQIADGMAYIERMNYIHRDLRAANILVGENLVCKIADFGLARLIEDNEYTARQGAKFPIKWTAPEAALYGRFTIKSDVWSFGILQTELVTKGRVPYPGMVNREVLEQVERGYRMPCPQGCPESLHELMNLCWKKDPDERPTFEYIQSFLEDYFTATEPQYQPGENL

CSNK1D (human), sequence (P48730 whole entry, looked up): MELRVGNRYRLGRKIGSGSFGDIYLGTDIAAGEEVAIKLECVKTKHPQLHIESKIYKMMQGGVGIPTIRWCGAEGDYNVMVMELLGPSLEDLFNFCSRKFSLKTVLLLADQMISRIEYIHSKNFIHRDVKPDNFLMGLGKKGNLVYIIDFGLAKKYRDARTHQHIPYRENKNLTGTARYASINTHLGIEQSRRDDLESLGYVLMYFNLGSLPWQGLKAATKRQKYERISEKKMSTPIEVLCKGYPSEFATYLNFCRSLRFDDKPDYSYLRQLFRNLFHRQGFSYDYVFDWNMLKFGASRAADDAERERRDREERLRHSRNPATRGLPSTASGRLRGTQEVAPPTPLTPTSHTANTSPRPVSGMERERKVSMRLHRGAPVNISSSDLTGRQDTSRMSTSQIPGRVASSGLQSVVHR
CAMKK2 (human), sequence (Q96RR4 whole entry, looked up): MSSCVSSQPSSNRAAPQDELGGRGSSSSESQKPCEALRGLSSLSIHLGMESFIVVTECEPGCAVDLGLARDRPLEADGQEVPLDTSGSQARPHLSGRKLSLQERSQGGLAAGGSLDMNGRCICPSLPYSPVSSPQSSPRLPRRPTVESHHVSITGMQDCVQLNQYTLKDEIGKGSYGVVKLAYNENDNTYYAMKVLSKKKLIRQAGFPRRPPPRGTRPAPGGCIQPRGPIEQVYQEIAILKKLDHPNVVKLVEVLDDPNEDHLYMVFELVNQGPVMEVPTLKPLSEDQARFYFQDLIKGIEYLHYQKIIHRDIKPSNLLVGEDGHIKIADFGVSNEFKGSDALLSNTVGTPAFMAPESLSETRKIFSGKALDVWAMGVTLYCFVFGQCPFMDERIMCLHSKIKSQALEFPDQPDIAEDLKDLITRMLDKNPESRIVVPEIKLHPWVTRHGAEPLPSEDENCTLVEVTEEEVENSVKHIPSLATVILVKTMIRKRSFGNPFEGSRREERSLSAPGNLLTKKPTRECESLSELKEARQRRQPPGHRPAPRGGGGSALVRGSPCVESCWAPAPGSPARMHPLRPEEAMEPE
AURKB (human), sequence (Q96GD4 whole entry, looked up): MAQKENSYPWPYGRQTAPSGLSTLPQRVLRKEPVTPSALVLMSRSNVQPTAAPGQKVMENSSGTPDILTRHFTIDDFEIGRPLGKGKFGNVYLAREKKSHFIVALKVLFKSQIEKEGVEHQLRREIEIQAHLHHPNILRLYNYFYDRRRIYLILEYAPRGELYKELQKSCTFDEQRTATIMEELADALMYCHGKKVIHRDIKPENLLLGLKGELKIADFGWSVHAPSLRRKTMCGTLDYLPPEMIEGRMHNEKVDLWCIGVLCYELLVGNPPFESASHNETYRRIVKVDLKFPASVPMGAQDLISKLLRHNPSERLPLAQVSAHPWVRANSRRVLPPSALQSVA
CaMK1 (human), sequence (Q14012 whole entry, looked up): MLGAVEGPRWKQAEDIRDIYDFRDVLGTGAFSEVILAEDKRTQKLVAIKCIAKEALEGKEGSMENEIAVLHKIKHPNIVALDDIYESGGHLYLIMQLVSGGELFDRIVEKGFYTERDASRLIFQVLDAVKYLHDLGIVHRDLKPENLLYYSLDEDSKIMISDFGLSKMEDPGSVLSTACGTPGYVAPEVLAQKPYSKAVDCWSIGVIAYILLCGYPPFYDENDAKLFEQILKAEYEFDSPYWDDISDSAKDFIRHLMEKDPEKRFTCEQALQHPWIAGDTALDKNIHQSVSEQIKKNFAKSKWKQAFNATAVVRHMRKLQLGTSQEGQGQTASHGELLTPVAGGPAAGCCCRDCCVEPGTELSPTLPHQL
IKBKB (human), sequence (O14920 whole entry, looked up): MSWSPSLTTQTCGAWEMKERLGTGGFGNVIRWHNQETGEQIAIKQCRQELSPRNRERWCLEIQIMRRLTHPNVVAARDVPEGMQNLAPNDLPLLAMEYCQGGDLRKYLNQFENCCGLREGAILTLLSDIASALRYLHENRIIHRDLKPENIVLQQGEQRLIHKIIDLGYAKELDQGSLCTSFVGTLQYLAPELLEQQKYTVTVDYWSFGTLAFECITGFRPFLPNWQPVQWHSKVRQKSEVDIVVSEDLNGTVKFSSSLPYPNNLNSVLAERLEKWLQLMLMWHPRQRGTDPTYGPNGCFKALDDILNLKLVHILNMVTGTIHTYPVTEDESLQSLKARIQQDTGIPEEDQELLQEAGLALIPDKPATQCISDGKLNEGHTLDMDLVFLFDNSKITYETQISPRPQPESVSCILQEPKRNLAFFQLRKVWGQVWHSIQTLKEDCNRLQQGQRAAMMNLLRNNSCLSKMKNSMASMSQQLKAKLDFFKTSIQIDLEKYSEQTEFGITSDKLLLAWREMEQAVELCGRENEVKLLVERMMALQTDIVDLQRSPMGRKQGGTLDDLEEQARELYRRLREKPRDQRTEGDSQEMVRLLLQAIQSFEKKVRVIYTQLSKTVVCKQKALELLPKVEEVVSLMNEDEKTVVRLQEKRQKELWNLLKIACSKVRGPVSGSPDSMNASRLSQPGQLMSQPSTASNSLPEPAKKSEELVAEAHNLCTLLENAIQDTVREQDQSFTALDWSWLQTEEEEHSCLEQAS
MINK1 (human), sequence (Q8N4C8 whole entry, looked up): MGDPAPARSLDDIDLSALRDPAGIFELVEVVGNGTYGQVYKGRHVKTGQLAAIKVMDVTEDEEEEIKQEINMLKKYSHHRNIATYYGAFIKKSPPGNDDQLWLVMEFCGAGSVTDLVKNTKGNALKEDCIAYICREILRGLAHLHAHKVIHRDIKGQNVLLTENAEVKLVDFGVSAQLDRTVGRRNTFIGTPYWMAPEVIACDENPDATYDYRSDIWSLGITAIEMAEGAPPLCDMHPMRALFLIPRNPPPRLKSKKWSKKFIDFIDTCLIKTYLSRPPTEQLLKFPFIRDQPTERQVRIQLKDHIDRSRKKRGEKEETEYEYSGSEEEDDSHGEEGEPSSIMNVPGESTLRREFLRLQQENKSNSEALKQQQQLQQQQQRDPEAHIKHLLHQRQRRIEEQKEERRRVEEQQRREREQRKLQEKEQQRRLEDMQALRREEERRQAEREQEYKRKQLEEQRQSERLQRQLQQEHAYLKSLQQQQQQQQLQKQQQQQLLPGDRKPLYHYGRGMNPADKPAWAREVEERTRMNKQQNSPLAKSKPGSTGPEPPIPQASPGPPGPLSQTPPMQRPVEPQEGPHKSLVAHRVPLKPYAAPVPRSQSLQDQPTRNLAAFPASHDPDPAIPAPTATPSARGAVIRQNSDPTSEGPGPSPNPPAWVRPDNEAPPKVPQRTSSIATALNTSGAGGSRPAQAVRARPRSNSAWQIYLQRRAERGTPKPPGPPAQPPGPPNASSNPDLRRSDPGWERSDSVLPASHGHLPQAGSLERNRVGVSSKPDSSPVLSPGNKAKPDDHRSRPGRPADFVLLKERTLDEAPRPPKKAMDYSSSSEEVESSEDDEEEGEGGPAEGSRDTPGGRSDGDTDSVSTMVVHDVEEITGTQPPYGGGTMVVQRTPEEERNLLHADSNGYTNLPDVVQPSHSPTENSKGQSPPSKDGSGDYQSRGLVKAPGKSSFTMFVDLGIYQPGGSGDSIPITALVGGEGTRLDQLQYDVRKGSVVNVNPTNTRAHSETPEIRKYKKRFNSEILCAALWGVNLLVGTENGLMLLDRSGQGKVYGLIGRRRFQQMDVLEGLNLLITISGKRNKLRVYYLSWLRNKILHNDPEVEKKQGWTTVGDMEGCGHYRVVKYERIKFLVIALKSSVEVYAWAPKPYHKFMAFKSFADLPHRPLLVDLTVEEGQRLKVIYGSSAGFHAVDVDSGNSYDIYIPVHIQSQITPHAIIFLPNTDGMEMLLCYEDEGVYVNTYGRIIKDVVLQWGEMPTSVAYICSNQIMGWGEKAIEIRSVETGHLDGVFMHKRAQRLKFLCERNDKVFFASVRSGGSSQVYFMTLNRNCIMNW
MELK (human), sequence (Q14680 whole entry, looked up): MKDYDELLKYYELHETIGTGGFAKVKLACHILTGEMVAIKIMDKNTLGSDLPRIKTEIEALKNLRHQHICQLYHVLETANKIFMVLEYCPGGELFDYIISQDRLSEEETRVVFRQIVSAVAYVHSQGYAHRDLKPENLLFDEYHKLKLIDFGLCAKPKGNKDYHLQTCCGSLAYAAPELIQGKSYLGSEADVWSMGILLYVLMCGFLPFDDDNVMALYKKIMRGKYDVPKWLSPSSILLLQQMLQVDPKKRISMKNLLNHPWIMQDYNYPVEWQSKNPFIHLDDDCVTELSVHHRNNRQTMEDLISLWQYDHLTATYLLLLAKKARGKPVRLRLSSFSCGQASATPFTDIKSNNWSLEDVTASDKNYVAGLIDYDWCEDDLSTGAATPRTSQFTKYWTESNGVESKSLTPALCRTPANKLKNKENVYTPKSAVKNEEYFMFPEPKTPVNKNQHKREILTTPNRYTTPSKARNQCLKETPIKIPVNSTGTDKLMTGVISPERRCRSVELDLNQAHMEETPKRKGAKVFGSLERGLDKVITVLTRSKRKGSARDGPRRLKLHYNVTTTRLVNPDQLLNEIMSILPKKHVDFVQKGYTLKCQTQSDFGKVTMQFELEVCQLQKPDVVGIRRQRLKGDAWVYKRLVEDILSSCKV

Compound `O=C(O)c1ccc(-c2c[nH]c3ncc(-c4ccccc4)cc23)cc1C1CCCC1` has a residual activity ([1]; compound 0.1 µM) of 85%, a residual activity ([1]; compound 1.0 µM) of 32% and a residual activity ([1]; compound 10.0 µM) of 6%. It also gave a residual activity [2] of 84%, a residual activity ([3]; compound 0.1 µM) of 89% and a residual activity ([3]; compound 1.0 µM) of 96%. For the same compound, the residual activity ([4]; compound 0.1 µM) was 11%, the residual activity ([4]; compound 1.0 µM) was 2% and the residual activity ([4]; compound 10.0 µM) was 2%. It also gave a residual activity ([5]; compound 0.1 µM) of 99%, a residual activity ([5]; compound 1.0 µM) of 96% and a residual activity ([5]; compound 10.0 µM) of 98%. The residual activity ([6]; compound 0.1 µM) was 70%, the residual activity ([6]; compound 1.0 µM) was 12% and the residual activity ([6]; compound 10.0 µM) was 3%. The residual activity ([7]; compound 0.1 µM) was 104%, the residual activity ([7]; compound 1.0 µM) was 99% and the residual activity ([7]; compound 10.0 µM) was 80%. The residual activity ([8]; compound 0.1 µM) was 79%, the residual activity ([8]; compound 1.0 µM) was 47% and the residual activity ([8]; compound 10.0 µM) was 8%. For the same compound, the residual activity ([9]; compound 0.1 µM) was 101%, the residual activity ([9]; compound 1.0 µM) was 20% and the residual activity ([9]; compound 10.0 µM) was 2%. It also gave a residual activity [10] of 103%, a residual activity [11] of 86% and a residual activity ([12]; compound 0.1 µM) of 108%. The residual activity ([12]; compound 10.0 µM) was 101%, the residual activity ([13]; compound 0.1 µM) was 70% and the residual activity ([13]; compound 1.0 µM) was 58%. The residual activity ([13]; compound 10.0 µM) was 15%, the residual activity ([14]; compound 0.1 µM) was 100% and the residual activity ([14]; compound 1.0 µM) was 103%. For the same compound, the residual activity ([14]; compound 10.0 µM) was 18%, the residual activity ([15]; compound 0.1 µM) was 94% and the residual activity ([15]; compound 1.0 µM) was 97%. For the same compound, the residual activity ([15]; compound 10.0 µM) was 64%, the residual activity ([16]; compound 0.1 µM) was 91% and the residual activity ([16]; compound 1.0 µM) was 44%. The residual activity ([16]; compound 10.0 µM) was 14%, the residual activity [17] was 93% and the residual activity ([18]; compound 0.1 µM) was 75%. For the same compound, the residual activity ([18]; compound 1.0 µM) was 33%, the residual activity ([18]; compound 10.0 µM) was 5% and the residual activity [19] was 115%. It also gave a residual activity ([20]; compound 0.1 µM) of 106%, a residual activity ([20]; compound 1.0 µM) of 104% and a residual activity ([20]; compound 10.0 µM) of 35%. It also gave a residual activity ([21]; compound 0.1 µM) of 94%, a residual activity ([21]; compound 1.0 µM) of 119% and a residual activity ([21]; compound 10.0 µM) of 106%. The residual activity ([22]; compound 0.1 µM) was 23%, the residual activity ([22]; compound 1.0 µM) was 32% and the residual activity ([22]; compound 10.0 µM) was 23%. For the same compound, the residual activity ([23]; compound 0.1 µM) was 81%, the residual activity ([23]; compound 1.0 µM) was 74% and the residual activity ([23]; compound 10.0 µM) was 39%. The residual activity ([24]; compound 0.1 µM) was 80%, the residual activity ([24]; compound 1.0 µM) was 46% and the residual activity ([24]; compound 10.0 µM) was 9%. For the same compound, the residual activity ([25]; compound 0.1 µM) was 107%, the residual activity ([25]; compound 1.0 µM) was 103% and the residual activity ([25]; compound 10.0 µM) was 96%. The residual activity ([26]; compound 0.1 µM) was 107%, the residual activity ([26]; compound 1.0 µM) was 77% and the residual activity ([26]; compound 10.0 µM) was 73%. It also gave a residual activity ([27]; compound 0.1 µM) of 100%, a residual activity ([27]; compound 1.0 µM) of 27% and a residual activity ([27]; compound 10.0 µM) of 8%. The residual activity ([28]; compound 0.1 µM) was 68%, the residual activity ([28]; compound 1.0 µM) was 19% and the residual activity ([28]; compound 10.0 µM) was 2%. For the same compound, the residual activity ([29]; compound 0.1 µM) was 68%, the residual activity ([29]; compound 1.0 µM) was 14% and the residual activity ([29]; compound 10.0 µM) was 4%. The residual activity ([30]; compound 0.1 µM) was 96%, the residual activity ([30]; compound 1.0 µM) was 85% and the residual activity ([30]; compound 10.0 µM) was 39%. It also gave a residual activity ([31]; compound 0.1 µM) of 110%, a residual activity ([31]; compound 1.0 µM) of 88% and a residual activity ([31]; compound 10.0 µM) of 38%. It also gave a residual activity ([32]; compound 0.1 µM) of 91%, a residual activity ([32]; compound 1.0 µM) of 62% and a residual activity ([32]; compound 10.0 µM) of 26%. It also gave a residual activity ([33]; compound 0.1 µM) of 91%, a residual activity ([33]; compound 1.0 µM) of 104% and a residual activity ([33]; compound 10.0 µM) of 97%. The residual activity [34] was 55%, the residual activity ([35]; compound 0.1 µM) was 105% and the residual activity ([35]; compound 1.0 µM) was 93%. For the same compound, the residual activity ([35]; compound 10.0 µM) was 42%.
